The results in this text go back to PubChem BioAssay AID2060609 (Molecular Pharmacology Branch, DTP, NCI, 2025).

In general, IC50 refers to the concentration that gives 50% inhibition. As usually defined, the viability, T/C is the ratio of treated to control.

Where “and” joins values, the source holds several entries; their conditions need not be identical. Equal values may be shown once. A value given as a limit tells only on which side of the number the result lay.

The subject of this test is 855422-203-R-J1-PDC complex spheroids, viability. As to the kind of experiment: Anticancer human tumor 855422-203-R-J1-PDC patient-derived bladder carcinoma cell line growth inhibition [CLK]. To be noted: for viability, T/C: stronger effect = lower value. The gist of the method:
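Multi-cell-type spheroids combined patient-derived tumor cells with HUVEC endothelial cells and human mesenchymal stem cells. Paired agents were dosed in half-log steps down from about clinical Cmax, or from 10 microM where Cmax was unknown.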
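Also: spheroids exposed to drugs for seven days before readout.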
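For viability, T/C in this document: 100% = DMSO vehicle control wells.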

For the compound `CC(CO)NC(=O)c1cc(-c2ccc(Cl)cc2)nn(-c2cnn(C)c2)c1=O` (stereo unspecified) + CN1CCN(c2cc(C(=O)Nc3cc4cc(-c5cnn(C)c5)ccc4cn3)ccn2)CC1, the half-maximal inhibitory concentration (IC50) is, setting by setting: (curve of first compound, second compound 0.0316 µM) greater than 10000 nM; (curve of first compound, second compound 0.1 µM) greater than 10000 nM; (curve of first compound, second compound 0.316 µM) less than 31.6 nM; (curve of first compound, second compound 1 µM) less than 31.6 nM; (curve of first compound, second compound 3.16 µM) less than 31.6 nM; (curve of first compound, second compound 10 µM) less than 31.6 nM. Also, the viability, T/C is, setting by setting: (second compound 0.0316 µM, first compound 0.0316 µM) 85.4%; (second compound 0.0316 µM, first compound 0.1 µM) 97.9%; (second compound 0.0316 µM, first compound 0.316 µM) 95.9%; (second compound 0.0316 µM, first compound 1 µM) 104%; (second compound 0.0316 µM, first compound 3.16 µM) 101%; (second compound 0.0316 µM, first compound 10 µM) 90.2%. The viability, T/C (second compound 0.1 µM, first compound 0.0316 µM) is 72.6%; the viability, T/C (second compound 0.1 µM, first compound 0.1 µM) is 83.2%; the viability, T/C (second compound 0.1 µM, first compound 0.316 µM) is 77.1%; the viability, T/C (second compound 0.1 µM, first compound 1 µM) is 93.9%; the viability, T/C (second compound 0.1 µM, first compound 3.16 µM) was 90.5%; the viability, T/C (second compound 0.1 µM, first compound 10 µM) was 69.4%. Moreover, the viability, T/C is 8.6% (second compound 0.316 µM, first compound 0.0316 µM); 12.4% (second compound 0.316 µM, first compound 0.1 µM); 11.9% (second compound 0.316 µM, first compound 0.316 µM); 12.4% (second compound 0.316 µM, first compound 1 µM); 13.4% (second compound 0.316 µM, first compound 3.16 µM); 9.74% (second compound 0.316 µM, first compound 10 µM). Moreover, the viability, T/C (second compound 1 µM, first compound 0.0316 µM) was 0.24%; the viability, T/C (second compound 1 µM, first compound 0.1 µM) is 0.3%; the viability, T/C (second compound 1 µM, first compound 0.316 µM) is 0.22%; the viability, T/C (second compound 1 µM, first compound 1 µM) was 0.28%; the viability, T/C (second compound 1 µM, first compound 3.16 µM) was 0.25%; the viability, T/C (second compound 1 µM, first compound 10 µM) is 0.24%. Besides, the viability, T/C is 2.96% (second compound 3.16 µM, first compound 0.0316 µM); 0.65% (second compound 3.16 µM, first compound 0.1 µM); 0.95% (second compound 3.16 µM, first compound 0.316 µM); 0.69% (second compound 3.16 µM, first compound 1 µM); 1.1% (second compound 3.16 µM, first compound 3.16 µM); 0.53% (second compound 3.16 µM, first compound 10 µM). The viability, T/C is, setting by setting: (second compound 10 µM, first compound 0.0316 µM) 0.44%; (second compound 10 µM, first compound 0.1 µM) 0.45%; (second compound 10 µM, first compound 0.316 µM) 0.33%; (second compound 10 µM, first compound 1 µM) 1.12%; (second compound 10 µM, first compound 3.16 µM) 1.09%; (second compound 10 µM, first compound 10 µM) 0.43%.

For `C=CC(=O)Nc1cc(Nc2nccc(-c3cn(C)c4ccccc34)n2)c(OC)cc1N(C)CCN(C)C`, the viability, T/C is, setting by setting: (compound 0.000949 µM) 112% and 158%; (compound 0.003 µM) 91.3% and 98.2%; (compound 0.00949 µM) 107% and 117%; (compound 0.03 µM) 99.9% and 90.9%; (compound 0.0949 µM) 108% and 118%; (compound 0.3 µM) 101% and 98.4%. Moreover, the concentration for half-maximal inhibition (IC50) (curve of compound) is greater than 300 nM.

As for `CCc1c2c(nc3ccc(O)cc13)-c1cc3c(c(=O)n1C2)COC(=O)[C@]3(O)CC`, the viability, T/C runs as follows: (compound 0.00316 µM) 94.3% and 93.4%; (compound 0.01 µM) 16.8% and 20.4%; (compound 0.0316 µM) 15.4% and 10.1%; (compound 0.1 µM) 5.45% and 6.24%; (compound 0.316 µM) 3.48% and 3.36%; (compound 1 µM) 1.87% and 2.42%. Also, under “curve of compound”, the IC50 is 6.21 nM and 6.32 nM.
